Literature values, collected in patent publication US10993934B2, “Topical compositions of dutasteride” (SHILPA MEDICARE LIMITED, priority 2017, dated 2021).

Tests used:
[1] = orally administered

Absolute bioavailability [1]: about 60%
Absolute bioavailability (range) ([1]; range in brackets): 40%-94%
Solubility in ethanol (ethanol): soluble
Solubility in methanol (methanol): soluble
Solubility in polyethylene glycol 400 (polyethylene glycol 400): soluble
Solubility in water (water): insoluble
Structure (SMILES): C[C@]12C=CC(=O)N[C@@H]1CC[C@@H]1[C@@H]2CC[C@]2(C)[C@@H](C(=O)Nc3cc(C(F)(F)F)ccc3C(F)(F)F)CC[C@@H]12 [Dutasteride, (5α,17β)-N-{2,5-bis(trifluoromethyl)phenyl}-3-oxo-4-azaandrost-1-ene-17-carboxamide]
